Values of other authors as cited in patent US20250135196A1, “COMPOSITIONS, SYSTEMS, AND METHODS FOR TREATING CANCER USING TUMOR TREATING FIELDS WITH INHIBITORS OF MIF, MICA, AND/OR MICB” (Brown University, priority 2023, published 2025).
pIC50, pKd, pKi: −log10 of the molar value. One block for each molecule: values may come before it.

Columns and labels:
[1] = target: T1, MIF (Homo sapiens, UniProt P14174); details: tautomerase assay; for pIC50 / pKi: literature values, reference number in brackets in cell; for pKi: read-out: Ki (TA); for fold more potent than ISO-1 (TA): relative to ISO-1
T1 sequence (P14174 2-115 limits assumed): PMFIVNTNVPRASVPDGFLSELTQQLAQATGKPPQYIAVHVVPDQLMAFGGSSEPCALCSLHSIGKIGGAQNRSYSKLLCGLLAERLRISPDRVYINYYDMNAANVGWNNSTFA

[2] = target: T2, MIF-CD74 (Homo sapiens, UniProt P14174); details: binding assay MIF-CD74; for pKd: read-out: Kd (BA)
T2 sequence (P14174 2-115 limits assumed): T1 sequence (P14174 2-115 limits assumed)

Structure (SMILES): Cc1ccccc1-c1cc2ccccc2c(=O)o1 [SCD-19]
inhibition (TA) ([1]; at concentration of 100 μM): 100% inhibition at concentration of 100 μM [37] (TA)

Structure (SMILES): COc1ccc(N2Cc3ccc(O)cc3OC2=O)cc1 [NVS-2]
pKd [2]: 7.26 | pIC50 [1]: 7.70 | pKi [1]: 7.57

pIC50 [2]: 6.00
Structure (SMILES): COC(=O)c1cccc(Cn2cc(-c3ccc(O)cc3)nn2)c1 [Jorgensen-3h]

pIC50 [1]: 6.30 to 6.70
Structure (SMILES): Ic1cc(-c2ccccc2)ncn1 [4-IPP, 4-iodo-6-phenylpyrimidine]

Structure (SMILES): O=C(CC1CC(c2ccc(F)cc2F)=NO1)N1CCOCC1 (stereo not shown) [CPS1-1306]
fold more potent than ISO-1 (TA) [1]: 100-fold more potent than ISO-1 [35] (TA)

Max. inhibition (BA) ([2]; maximal inhibition): 40%
Structure (SMILES): COC(=O)CC1CC(c2ccc(O)cc2)=NO1 (racemic) [ISO-1]

pKd [2]: 7.15 | pKi [1]: 7.24
Structure (SMILES): O=C(O)c1cccc(Oc2cc(-c3cn(-c4ccc(O)c(F)c4)nn3)nc3ccccc23)c1 [Dziedzic-3bb]

Structure (SMILES): CN(C(=O)CC1CC(c2ccc(Cl)cc2)=NO1)C1CCCCC1 (stereo not shown) [CPSI-2705]
fold more potent than ISO-1 (TA) [1]: 2-10-fold more potent than ISO-1 (35) (TA)

pIC50 [2]: 6.05
Structure (SMILES): COc1cccc(Cn2cc(-c3ccc(O)cc3)nn2)c1OC [Jorgensen-3g]

pIC50 [1]: 5.82
Structure (SMILES): COC(=O)CC1CC(c2ccc(O)c(F)c2)=NO1 (stereo not shown) [ISO-66]
